Test results from PMC5903475, “Food-Derived Hemorphins Cross Intestinal and Blood–Brain Barriers In Vitro” (Frontiers in Endocrinology, 2018).
Where a SMILES comes first, the peptide text is derived from it. Where no end group is shown, it is not given here.

How the values were obtained:
caco-2 cell monolayer = tested on: caco-2 cell monolayer; design: method as in PMID 18468445; conditions: cited from earlier work
[1] = tested on: FK-induced intracellular cAMP in Caco-2 cells; assay: cAMP determination assay in forskolin-stimulated Caco-2 cells; format: cell-based, human; conditions: 1 µM alone, 15 min
Experimental: For the cAMP determination assay and the gene expression study, the cell line used was the Caco-2 cell line purchased from Sigma-Aldrich (Steinheim, Germany). Cells were grown at 37°C, 5% CO2 atmosphere in Dulbecco’s modified Eagle’s Medium (DMEM, 4.5 g L^−1 glucose) supplemented with 10% FBS, 2 mM L-glutamine, 100 U mL^−1 penicillin, and 100 µg mL^−1 streptomycin (complete DMEM) until use. Caco-2 from passages 34–37 were used. For the transport studies, the cell lines used and the culture protocols conditions are described in detail in dedicated subsections below.
The effect of the five opioid peptides/hemorphins on the cAMP production was assessed in vitro in Caco-2 cells. Each hemorphin was applied on Caco-2 cells stimulated or not by FK, an activator of the cAMP pathway, in order to evaluate the ability of the peptides to decrease intracellular cAMP elevation induced by FK. […] At the end of the 15 min incubation, cells were immediately rinsed three times with PBS and plates were stored at −80°C until intracellular cAMP levels determination with the Mouse/Rat cAMP Parameter Assay Kit according to the manufacturer’s guidelines. cAMP levels were normalized by the total protein concentration determined by the Pierce BCA Protein Assay Kit for each sample and expressed as a percentage of the reference condition FK only.

[2] = tested on: mu- and kappa-transfected CHO-cells; design: method as in Fukuda et al. 45; conditions: ref Fukuda et al. 45; cited from earlier work
physchem = conditions: pH 7.4
[3] = tested on: brain-like endothelial cells (BLEC) co-cultured with bovine brain pericytes (human BBB model); conditions: peptide applied apically at 100 µM; table footnote says end of 120 min test, Figure 4 says 30 min
Experimental: The brain-like endothelial cell model has previously been described in detail ([28]). All the sample donors had given their written informed consent, in compliance with French legislation and the 2013 version of the Declaration of Helsinki. The sample collection was approved by the local investigational review board (Bethune Maternity Hospital Béthune, France). Briefly, this human model consists in isolating CD34+ cells from umbilical cord blood. These cells are then cultured in endothelial cell medium supplemented with 20% FCS for 15–20 days. After this period, cells are differentiated into endothelial cells. After a trypsinization step, they are seeded on matrigel coated-transwell inserts in 12-well culture plates, and subsequently cultured with brain pericytes, isolated from bovine brain capillaries. After 6 days of co-culture, human endothelial cells acquire the BBB phenotype, and are then named BLECs.
(§1) The day of the transport test, the same procedure as for the intestinal passage assay was applied except that the transwell inserts were transferred to a new 12-well culture plate at each time point, 30, 60, 90, and 120 min. All incubations were performed at 37°C, 5% CO2 atmosphere with slight agitations. The transport medium consisted in Ringer-Hepes solution (150 mM NaCl, 5.2 mM KCl, 2.2 mM CaCl2, 0.2 mM MgCl2⋅6H2O, 6 mM NaHCO3, 5 mM HEPES, pH 7.4). […] A test was performed without cells to insure that the filter membrane was not preventing the passage of the peptides.
The injection volume was 2 µL.

[4] = tested on: BLEC blood-brain barrier model; conditions: hemorphin 100 µM apical; Dunnett's post hoc
Experimental: as §1

[5] = tested on: Caco-2/TC7 cell barrier (human intestinal barrier model); conditions: for Passage of the intact peptide across the Caco-2 monolayer / Time of first appearance of the intact peptide in the basal compartment: 5 mM apical; for Passage of the intact peptide across the Caco-2 monolayer: basal samples 5-120 min, MRM; for Intact peptide or fragments present in the apical compartment, intestinal barrier / Intact peptide or fragments present in the basal compartment, intestinal barrier: peptide applied apically at 5 mM, end of the 120 min passage test, LC-MS/MS
Experimental: For the experiment, they were seeded at the density of 60 × 10^3 cells cm^−2 into cell culture inserts in 6-well culture plates and grown for 21 days.
The day of the trans-intestinal transport test, growth media were removed, and cells were first rinsed with the transport medium, HBSS-Hepes buffer supplemented with CaCl2 (2.5 mM final) and MgCl2 (0.5 mM final) in the apical (1 mL) and basolateral chambers (2.5 mL), then pre-incubated for 30 min with the transport medium. All incubations were performed at 37°C, 10% CO2 atmosphere. To control the integrity of the Caco-2/TC7 cell barrier, the paracellular transport marker lucifer yellow (LY, 100 µM final) was applied apically into each well and its transport into the basolateral chamber was monitored by spectrofluorescence. Each hemorphin was diluted for a final concentration of 5 mM in transport medium-LY and applied to the apical chamber at t0. In parallel, control wells were incubated with transport medium-LY only and all conditions were tested in triplicate. At t5, 15, 30, and 60 min, 100 µL samples were collected in the basal chamber and replaced by the same volume of transport medium. At t120 min, all remaining media in basal and apical chambers were collected and all samples were stored at −80°C. The rate of LY transport was determined by fluorescence readings (ex 485/em 530 nm) at each time point on the spectrofluorometer Safas Xenius XC (Safas Monaco, Monaco, France) and calculating the apparent permeability coefficient (Papp) as follows: (ΔQ/Δt) × (Vb/(A × C0)), where ΔQ is the change in LY concentration in the basal chamber (μM); Δt is the transport duration (s); Vb is the volume in the basal chamber (mL); A is the surface area of the insert/transwell membrane (cm^2); and C0 is the initial concentration of LY applied to the apical chamber (μM).
LC-MS/MS analysis was performed on a UFLC-XR device (Shimadzu, Kyoto, Japan) coupled to a QTRAP® 5500 MS/MS hybrid system triple quadrupole/linear ion trap mass spectrometer (AB Sciex, Foster City, CA, USA) equipped with a Turbo VTM ion source. Instrument control, data acquisition, and processing were performed using Analyst 1.5.2 software. The reverse phase liquid chromatography separation was carried out on a Kromasil C18 column (100 × 2.1 mm, 3.5 µm) with guard cartridge from AIT-France (Houilles, France). The injection volume was 2 µL. Elution was performed at a flow rate of 200 µL min^−1 with water-formic acid 0.1% as eluent A and acetonitrile-formic acid 0.1% as eluent B. The injection duty cycle was 10 min, starting with a 1 min plateau with 25% B, followed by a linear gradient from 25 B to 60% B in 4 min, a 1 min plateau with 60% B, 1 min linear gradient from 60 to 25% B, and 3 min at 25% B to recondition the column. MS analysis was carried out in positive ionization mode. The ion source parameters were optimized and set as follows: ion spray voltage, 5,500 V; nebulizer gas (air) and curtain gas (nitrogen) flows, 50 and 25 psi, respectively; source temperature, 550°C with the auxiliary gas flow (air) set at 50 psi; declustering potential (DP), 100 V; and collision cell exit potential, 25 V. The mass spectrometer was operated at a unit resolution for both Q1 and Q3 with a dwell time of 90 ms in each transition.
The presence of each intact hemorphin and potential fragments were tracked by a combination of multiple reaction monitoring (MRM) and pseudo-MRM transitions.

Caco-2/TC7 cell barrier = conditions: LY 100 µM with hemorphin 5 mM apical
Experimental: The day of the trans-intestinal transport test, growth media were removed, and cells were first rinsed with the transport medium, HBSS-Hepes buffer supplemented with CaCl2 (2.5 mM final) and MgCl2 (0.5 mM final) in the apical (1 mL) and basolateral chambers (2.5 mL), then pre-incubated for 30 min with the transport medium. All incubations were performed at 37°C, 10% CO2 atmosphere. To control the integrity of the Caco-2/TC7 cell barrier, the paracellular transport marker lucifer yellow (LY, 100 µM final) was applied apically into each well and its transport into the basolateral chamber was monitored by spectrofluorescence. Each hemorphin was diluted for a final concentration of 5 mM in transport medium-LY and applied to the apical chamber at t0. […] The rate of LY transport was determined by fluorescence readings (ex 485/em 530 nm) at each time point on the spectrofluorometer Safas Xenius XC (Safas Monaco, Monaco, France) and calculating the apparent permeability coefficient (Papp) as follows: (ΔQ/Δt) × (Vb/(A × C0)), where ΔQ is the change in LY concentration in the basal chamber (μM); Δt is the transport duration (s); Vb is the volume in the basal chamber (mL); A is the surface area of the insert/transwell membrane (cm^2); and C0 is the initial concentration of LY applied to the apical chamber (μM).

[6] = background statement, no reference printed for it; cited from earlier work
blood-brain barrier = conditions: 125I-H7; rats; cited from earlier work

Compound | Intact peptide or fragments present in the basal compartment, BBB [3] | Passage of the intact peptide across the Caco-2 monolayer [5] | Intact peptide or fragments present in the apical compartment, intestinal barrier [5] | Intact peptide or fragments present in the basal compartment, intestinal barrier [5] | Time of first appearance of the intact peptide in the basal compartment ([5]; Caco-2 model) | further results
endomorphine-1 |  |  |  |  |  | Permeability through a caco-2 cell monolayer (caco-2 cell monolayer): low permeability
C=CCN1CC[C@]23c4c5ccc(O)c4O[C@H]2C(=O)CC[C@@]3(O)[C@H]1C5 [naloxone] |  |  |  |  |  | Intracellular cAMP, % of FK levels [1]: 68.42 ± 6.87%; Activity at opioid receptors in transfected CHO-cells [2]: partial agonist activity
LLVVYPWT [LLVV-H4, LLVV-YPWT] | H4, VV-H4, LVV-H4, LLVV-H4 | not detected |  |  |  | solubility (physchem): > 50 µM; Papp(LY) compared to control, BBB model [4]: 133.2 ± 16.44%; Papp(LY) compared to control, intestinal barrier model (Caco-2/TC7 cell barrier): decreased compared to control (non-significant)
VVYPWTQRF [VV-H7, VV-YPWTQRF] | H4, VV-H7, VV-H4, H7, H3, H5 | found in traces | VV-H7, VV-H4, H7, H6 | H4, VV-H7, H7, H3 |  | Papp(LY) compared to control, intestinal barrier model (Caco-2/TC7 cell barrier): decreased compared to control (non-significant)
C[C@@H](O)[C@H](NC(=O)[C@H](Cc1c[nH]c2ccccc12)NC(=O)[C@@H]1CCCN1C(=O)[C@@H](N)Cc1ccc(O)cc1)C(=O)O [H4, YPWT] (H-YPWT-OH) |  |  |  |  |  | Time of first identification of the fragment in basal samples ([5]; fragment released from hemorphins applied at 5 mM, Caco-2 model): 5 min; Stability in plasma [6]: very stable in plasma
YPWTQRF [H7, YPWTQRF] |  | clearly able to cross intact the cell monolayer |  |  | 5 min | Time to BBB passage after intra-femoral artery injection (blood-brain barrier): ≤ 15 min
LVVYPWT [LVV-H4, LVV-YPWT] | H4, VV-H4, LVV-H4 | clearly able to cross intact the cell monolayer | LVV-H4, VV-H4, H4 | H4, VV-H4, LVV-H4 | 60 min | 
VVYPWT [VV-H4, VV-YPWT] | H4, VV-H4 | clearly able to cross intact the cell monolayer | VV-H4, H4 | H4, VV-H4 | 60 min | Papp(LY) compared to control, BBB model [4]: 142.2 ± 26.71%
